In patent US20240122180A1, “FUNGICIDAL HALOMETHYL KETONES AND HYDRATES AND THEIR MIXTURES” (FMC Corporation, priority 2020, published 2024):

Assays:
[1] = test system: Puccinia recondita f. sp. tritici (the causal agent of wheat leaf rust); assay: Test B: preventive spray on wheat seedlings, disease rating (100 = 100% control; * 50 ppm, ** 10 ppm, *** 250 ppm); assay type: in vivo; settings: 100 = 100% disease control; for pest or weed control at 10 ppm: Puccinia recondita
Outline: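 Preventive test: Puccinia recondita f. sp. tritici spores were inoculated one day after run-off spraying of wheat seedlings with test suspension (acetone/water 50/50, 250 ppm PEG400). After 24 h in saturated air and 6 days in a growth chamber, both at 20° C, control was scored 0–100 versus untreated plants.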

[2] = test system: Phakopsora pachyrhizi (the causal agent of Asian soybean rust); assay: Test A: preventive spray on soybean seedlings, visual disease rating (100 = 100% control; * 50 ppm, ** 10 ppm, *** 250 ppm); assay type: in vivo; settings: 100 = 100% disease control; for pest or weed control at 10 ppm: Phakopsora pachyrhizi
Outline: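 Preventive test: one day after spraying compound (acetone/water suspension, 250 ppm PEG400), seedlings received rust spore inoculum, 24 h in saturated air then 8 days in growth chamber, both at 22 °C. Disease control scored visually, 100 = complete, 0 = none, relative to untreated controls.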

[3] = 10 ppm test suspension, 0 = no control
[4] = 10 ppm test suspension, wheat seedlings
[5] = 10 ppm test suspension, soybean seedlings
[6] = 50 ppm test suspension, 0 = no control

| Compound | Test B disease control rating [1, 4] [%] | Test A disease control rating [2, 5] [%] | other results |
| --- | --- | --- | --- |
| CCOC(=O)c1cnn(CCCc2cccc(OCC(O)(O)C(F)(F)F)c2)c1 [compound 417] |  |  | pest or weed control at 10 ppm [1, 3]: 0%; pest or weed control at 10 ppm [2, 3]: 0% |
| COC(=O)COC(=O)c1cnn(Cc2ccc(OCC3(C(F)(F)F)OCCO3)cc2)c1 [compound 203] | 0 | 50 |  |
| O=C(OCc1ccc(Cl)c(Cl)c1)c1cnn(Cc2ccc(OCC(O)(O)C(F)(F)F)cc2)c1 [compound 49] | 86 | 0 |  |
| CCCCOC(=O)c1cnn(Cc2cccc(O/C=C(\OCC)C(F)(F)F)c2)c1 [compound 339] |  |  | Test B disease control rating [1, 3]: 0%; Test A disease control rating [2, 3]: 100% |
| C#CCOC(=O)c1ccn(Cc2ccc(O/C=C(\OCC)C(F)(F)F)cc2)n1 [compound 325] |  |  | Test B disease control rating [1, 3]: 0%; Test A disease control rating [2, 3]: 100% |
| COC(=O)NN=Cc1ccc(OCC2(C(F)(F)F)OCCO2)cc1 [compound 27] | 0 | 0 |  |
| CCO/C(=C\Oc1ccc(Cn2ncnc2C(=O)OC)cc1)C(F)(F)F [compound 122] | 0 | 0 |  |
| CCOC(=COc1ccc(CC2CC(C(=O)N(C)C)=NO2)cc1)C(F)(F)F (stereo not drawn) [compound 288] |  |  | Test B disease control rating [1, 6]: 0%; Test A disease control rating [2, 6]: 96% |
| FC(F)(F)C1(COc2ccc(-c3ccccc3)cc2)OCCO1 [compound 190] | 0 | 0 |  |
| CCOC(=O)c1cnn(Cc2cccc(O/C=C(\OCC)C(F)(F)F)c2C)c1 [compound 303] |  |  | Test B disease control rating [1, 6]: 0%; Test A disease control rating [2, 6]: 0% |
| CCO/C(=C\Oc1cccc(Cn2cc(C(=O)OCCCC(F)(F)F)cn2)c1)C(F)(F)F [compound 355] |  |  | Test B disease control rating [1, 3]: 0%; Test A disease control rating [2, 3]: 100% |
| O=C(NCC(F)(F)F)c1csc(Cc2ccc(OCC(O)(O)C(F)(F)F)cc2)n1 [Compound 68] | 95 | 100 |  |
| CCO/C(=C\Oc1ccc(CNC(=O)CC)cc1)C(F)(F)F [compound 150] | 0 | 33 |  |
| CCOC(=O)c1csc(Cc2ccc(OCC3(C(F)(F)F)OCCO3)cc2)n1 [compound 137] | 0 | 79 |  |
| CCOC(=O)c1cn(Cc2ccc(O/C=C(\OCC)C(F)(F)F)cc2)nn1 [compound 121] | 0 | 100 |  |
| CCNC(=O)N1CC(c2ccc(OC=C(OCC)C(F)(F)F)cc2)C1 [compound 412] |  |  | Test B disease control rating [1, 6]: 0%; Test A disease control rating [2, 6]: 100% |
| CCOC(=O)c1cnn(Cc2ccc(O/C=C(\OCCO)C(F)(F)F)cc2)c1 [compound 145] | 0 | 82 |  |
| O=C(CC(F)(F)F)NCc1ccc(OCC2(C(F)(F)F)OCCO2)cc1 [compound 212] | 0 | 44 |  |
| C#CCOC(=O)c1ccc(O/C=C(\OCC)C(F)(F)F)cc1 [compound 75] | 0 | 0 |  |
| CON(Cc1ccc(OCC2(C(F)(F)F)OCCO2)cc1)C(=O)OC(C)(C)C [compound 238] | 0 | 73 |  |
| CCOC(=O)c1cnn(Cc2ccc(CCC3(C(F)(F)F)OCCO3)cc2)c1 [compound 67] |  |  | Test B disease control rating ([1]; 50 ppm test suspension, wheat seedlings): 0%; Test A disease control rating ([2]; 50 ppm test suspension, soybean seedlings): 65% |
| CCOC(=O)c1cc(OC)n(Cc2ccc(O/C=C(\OCC)C(F)(F)F)cc2)n1 [compound 90] | 0 | 100 |  |
| O=C(NCC(F)(F)F)c1cnc(Cc2ccc(OCC(O)(O)C(F)(F)F)cc2)o1 [compound 274] |  |  | Test B disease control rating [1, 3]: 0%; Test A disease control rating [2, 3]: 48% |
| CCOC(=O)c1cnn(-c2cccc(O/C=C(\OCC)C(F)(F)F)c2)c1 [compound 317] |  |  | Test B disease control rating [1, 6]: 0%; Test A disease control rating [2, 6]: 0% |

| Compound | Test B disease control rating [1, 4] [%] | Test A disease control rating [2, 5] [%] | other results |
| --- | --- | --- | --- |
| O=C(OC1CCC1)c1cnn(Cc2ccc(OCC3(C(F)(F)F)OCCO3)cc2)c1 [compound 318] |  |  | Test B disease control rating [1, 3]: 0%; Test A disease control rating [2, 3]: 100% |
| C=CCOC(=O)c1cnn(Cc2ccc(OCC(O)(O)C(F)(F)F)cc2)c1 [compound 43] | 60 | 96 |  |
| CCOC(=O)c1cnn(Cc2ccc(OCC3(C(F)(F)F)OC(=O)C(C)O3)cc2)c1 (stereo not drawn) [compound 187] | 74 | 93 |  |
| CCNC(=O)OCc1ccc(O/C=C(\OCC)C(F)(F)F)cc1 [compound 196] | 74 | 0 |  |
| CCOC(=O)NCc1ccc(O/C=C(\OCC)C(F)(F)F)cc1 [compound 111] | 0 | 0 |  |
| CCOC(=O)c1cnn(COc2ccc(O/C=C(\OCC)C(F)(F)F)cc2F)c1 [compound 425] |  |  | pest or weed control at 10 ppm [1, 3]: 0%; pest or weed control at 10 ppm [2, 3]: 100% |
| CCOC(=O)c1cnn(Cc2ccc(O/C=C(\OS(=O)(=O)C(F)(F)F)C(F)(F)F)cc2)c1 [compound 422] |  |  | Test B disease control rating [1, 6]: 84%; Test A disease control rating [2, 6]: 100% |
| CCO/C(=C\Oc1ccc(Cc2ccnc(OCC(F)F)n2)cc1)C(F)(F)F [compound 306] |  |  | Test B disease control rating [1, 6]: 68%; Test A disease control rating [2, 6]: 96% |
| CCO/C(=C\Oc1ccc(Cn2ccc(C(=O)OCC(C)=O)n2)cc1)C(F)(F)F [compound 359] |  |  | Test B disease control rating [1, 3]: 0%; Test A disease control rating [2, 3]: 100% |
| O=C(O)c1cnn(Cc2ccc(OCC3(C(F)(F)F)OCCO3)cc2)c1 [compound 93] | 0 | 96 |  |
| CCO/C(=C\Oc1ccc(Cn2c(=O)oc3ccccc32)cc1)C(F)(F)F [compound 226] | 0 | 0 |  |
| CCOC(=O)c1cnn(C(C)c2ccc(OCC3(C(F)(F)F)OCCO3)cc2)c1 (racemic) [compound 26] | 0 | 99 |  |
| O=C(OCCCCl)c1cnn(Cc2ccc(OCC3(C(F)(F)F)OCCO3)cc2)c1 [compound 161] | 0 | 100 |  |
| CCOC(=O)c1csc(Cc2ccc(OCC(O)(O)C(F)(F)F)cc2)n1 [Compound 136] | 83 | 98 |  |
| CN(C)S(=O)(=O)c1ccc(OCC(O)(O)C(F)(F)F)cc1 [compound 34] | 80 | 0 |  |
| CCOC(=O)C1=NOC(c2ccc(O/C=C(\OCC)C(F)(F)F)cc2)C1 (stereo not drawn) [compound 278] |  |  | Test B disease control rating [1, 6]: 0%; Test A disease control rating [2, 6]: 94% |
| CCO/C(=C\Oc1ccc(CNC(=O)CC(F)(F)F)cc1)C(F)(F)F [compound 113] | 0 | 0 |  |
| CS(=O)(=O)c1ccc(OCC2(C(F)(F)F)OCCO2)cc1 [compound 24] | 91 | 81 |  |
| C#CCO/C(=C\Oc1ccc(Cn2cc(C(=O)OCC)cn2)cc1)C(F)(F)F [compound 56] | 0 | 38 |  |
| CCO/C(=C\Oc1ccc(Cn2ncnc2SC)cc1)C(F)(F)F [compound 260] |  |  | Test B disease control rating [1, 3]: 0%; Test A disease control rating [2, 3]: 0% |
| CCO/C(=C\Oc1cccc(Cn2cc(C(=O)O)cn2)c1)C(F)(F)F [compound 323] |  |  | Test B disease control rating [1, 6]: 0%; Test A disease control rating [2, 6]: 100% |
| CCO/C(=C\Oc1ccc(C(N)=O)cc1)C(F)(F)F [compound 99] | 80 | 0 |  |
| CCOC(=O)c1cnn(Cc2ccc(CO/C=C(\OCC)C(F)(F)F)cc2)c1 [compound 167] | 0 | 38 |  |
| O=C(NCC1CC1)c1csc(Cc2ccc(OCC(O)(O)C(F)(F)F)cc2)n1 [Compound 69] | 96 | 98 |  |
